Experiment: gradient 5% acetonitrile 3 min, to 50% in 2 min, to 85% in 15 min, held 3 min, 100 µL/min
Settings: column: Zorbax Extend-C18 2.1 x 50 mm; eluents: water / acetonitrile, 0.1% formic acid
Outline: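 In both positive and negative ionization mode, a quadrupole time-of-flight mass spectrometer coupled to HPLC analyzed pure standards run in mixtures of ~100 molecules. The Zorbax Extend-C18 column (2.1 × 50 mm, 1.8 μm) was operated at 100 μL/min with water and acetonitrile, each containing 0.1% formic acid. The dead volume was 40 μL and the dwell volume 900 μL. Retention time came from adduct peaks that were computationally picked and individually inspected by hand.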

Structure (SMILES) | RP-LC retention time
Cn1c(=O)c2cc(C(=O)NCC3CCCCC3)nn2c2ccccc21 | 957 s
Cc1cc(C)cc(NS(=O)(=O)c2cc(-c3nc(C)cs3)sc2C)c1 | 1080 s
COCCCNC(=O)N1CCCC1c1ccccc1Cl (stereo unspecified) | 797 s
CCCn1cc(CCNS(=O)(=O)c2c(C)c(C)cc(C)c2C)c2cccnc21 | 1060 s
O=C(NCc1ccc(F)cc1)N1CC(F)(F)C[C@H]1c1nnc(-c2cnccn2)o1 | 747 s
O=C(NCc1cccc(Br)c1)c1c(O)c2cccnc2[nH]c1=O | 1000 s
CC(=O)N1CCc2cc(S(=O)(=O)NCCn3nc(-c4cccs4)ccc3=O)ccc21 | 650 s
O=C(C1CCN(c2ccc(Cl)cc2)C1=O)N1CCN(c2ccccn2)CC1 (stereo unspecified) | 634 s
CCc1ccc(NC(=O)Cn2nc(N3CCCC3)c3ccccc3c2=O)cc1 | 1030 s
COCCCNc1c(C(=O)OC)c(=O)[nH]c2c(Cl)cccc12 | 692 s
Cc1cccc(Sc2nccnc2N2CCCC(C(=O)NCCCc3ccccc3)C2)c1 (stereo unspecified) | 1190 s
CCOCCCNC(=O)C1CCCN(C(=O)c2[nH]c(C)cc2C)C1 (stereo unspecified) | 678 s
CCC(CC)C(=O)N1CCC(N2CCN(Cc3ccc(C)cc3)C(=O)C2=O)CC1 | 756 s
COC(=O)c1ccccc1NC(=O)CCc1c(-c2ccc(F)cc2)nc2ccccn12 | 724 s
Cc1cccc(N2CCN(C(=S)Nc3ccc4nc(N5CCN(C)CC5)cc(C)c4c3)CC2)c1C | 655 s
Cc1nc(-c2ccnc(N3CCOCC3)c2)no1 | 614 s
Cc1cc(Cl)ccc1NC(=O)C1CCN(C(=O)c2ncn3c2COC(c2ccc(F)cc2)C3)CC1 (stereo unspecified) | 871 s
COc1ccc(NC(=O)CCc2c(C)nn(-c3cc(N(C)C)ncn3)c2C)cc1OC | 697 s
CCOC(=O)c1cc(C(=O)OCC)n(CC(=O)c2ccccc2)n1 | 973 s
CCC1(O)CCC12CCN(C(=O)CCC1CCCC1)CC2 (stereo unspecified) | 924 s
CCSc1nnc(NC(=O)CNC(=O)c2ccc(=O)[nH]c2)s1 | 571 s
Cc1ccc(N2C(=O)C3N=NN(Cc4nc(-c5ccc(OC(C)C)cc5)no4)C3C2=O)cc1 (stereo unspecified) | 1110 s

Structure (SMILES) | RP-LC retention time
Cc1cc(C(=O)Nc2nc(-c3nc4ccccc4s3)cs2)c(C)o1 | 1040 s
CC1=C(c2ccc(C)cc2)S(=O)(=O)N=C1N1CCC(NC(=O)CCC(C)C)CC1 | 888 s
COc1cccc(CN2CCc3nn(CC4CC4)c(=O)n3CC2)n1 | 595 s
COc1cccc(C(=O)NC2(C(F)(F)F)C(=O)N(C3CCCC3)C(C)=C2C(C)=O)c1 (stereo unspecified) | 964 s
CCc1noc(C)c1-c1[nH]c2ccccc2c1C(=O)C(=O)N(C)C | 714 s
Cc1noc(C)c1CC(=O)N1CCN(c2ncnc3c2CCC3)CC1 | 559 s
CCOc1ccccc1NC(=O)C1CCN(S(=O)(=O)c2ccc3c(c2)sc(=O)n3CC)CC1 | 922 s
Cc1ccc(NC(=O)c2cccn2Cc2noc(C3CC3)n2)c(Cl)c1 | 1030 s
Cc1ccc(C)c(N2CCN(C(=O)Cc3csc4nc(-c5ccc(C)c(C)c5)cn34)CC2)c1 | 1120 s
Cc1ccc2cc(CCC(=O)NCc3nc4ccccc4n3C)c(=O)[nH]c2c1 | 617 s
COc1ccc(Nc2c(C(=O)N3CCCCC3C)cnc3nc(C)ccc23)cc1OC (stereo unspecified) | 598 s
O=C(CN1C(=O)CCC1=O)N(Cc1ccsc1)Cc1ccco1 | 710 s
c1ccc(-c2cc(N3CCN(c4ccccn4)CC3)nn2-c2ccccc2)cc1 | 831 s
CC(C)Oc1cccc(NC(=O)C2CCN(S(C)(=O)=O)c3cc(Cl)ccc3O2)c1 (stereo unspecified) | 998 s
CCOC(=O)c1ccc(-c2c(C(=O)OCC)oc3cc(O)c(CC)cc3c2=O)o1 | 955 s
CCNC(=O)CC1=C2CCCCC2N(C)C1=O (stereo unspecified) | 607 s
CCc1ccccc1NC(=O)N1CCCC(C)(C(=O)NCc2ccc(F)cc2)C1 (stereo unspecified) | 864 s
CC(=O)c1cccc(NC(=O)Cn2c(=O)n(-c3ccc(C)cc3)c(=O)c3c2cc(C)n3C)c1 | 819 s
CC(C)n1cnc2cc(CNC(=O)c3cnccn3)ccc21 | 572 s
O=C1NCCCn2cc(S(=O)(=O)N3CCN(c4cccc(Cl)c4)CC3)cc21 | 804 s
O=C(NCC1CCCO1)c1nc(-c2ccnc(N3CCCCCC3)c2)no1 (stereo unspecified) | 641 s
O=C(Nc1ccc(Br)cc1F)C1CCCN(c2cnc3ccccc3n2)C1 (stereo unspecified) | 1070 s

Next, values leading:

RP-LC retention time | Structure (SMILES)
750 s | O=c1cc(-c2ccccc2)oc2cc(O)c(O)cc12
796 s | O=C(Cn1nc2c3cc(-c4ccccc4)nn3ccn2c1=O)NC1CCCC1
669 s | CC(C)N1C[C@H](Oc2ccccc2)[C@@H]1C1CCN(S(=O)(=O)c2cccnc2)CC1
897 s | COc1cc(OC)c(NC(=O)N2CCCC(C)(C(=O)NCc3ccccc3)C2)cc1Cl (stereo unspecified)
614 s | COC(=O)c1ccc(NC(=O)CN2CCc3[nH]c4c(OC)ccc(Cl)c4c(=O)c3C2)cc1
656 s | COc1ccc(NC(=O)CN2CCc3[nH]c4c(C)c(Cl)ccc4c(=O)c3C2)c(OC)c1
714 s | CN(C)c1ncnc2c1ncn2-c1ccccc1
1040 s | CCc1ccc(-c2csc(Nc3cc(C)ccn3)n2)cc1
591 s | CCOC(=O)c1ccc(NC(=O)COc2cc(C)nc(N3CCCC3)n2)cc1
826 s | O=C(CCn1nnc2cc(-c3noc(COc4ccccc4)n3)ccc21)N1CCOCC1
582 s | Cc1nn(C)c(C)c1CCN(C)C(=O)C1CCCCC(=O)N1C (stereo unspecified)
606 s | O=C(Nc1ccc2c(c1)OCCO2)c1cn2c(n1)COCC2
599 s | COC1CCN(C(=O)NC(C)C)CC1
913 s | CCN(Cc1ccccc1)S(=O)(=O)c1cc(-c2nnc(C3CCC3)o2)co1
580 s | CC1CCN(C(=O)c2cc3c(s2)CCC(C(=O)O)C3)CC1 (stereo unspecified)
988 s | Cc1ccc(C2c3[nH]c4ccccc4c3CCN2C(=O)Cc2cccs2)cc1 (stereo unspecified)
846 s | O=C(COc1ccc([N+](=O)[O-])cc1Cl)N1CCOCC1
658 s | Cc1cc2c(cc3n2CC(C)(C(=O)NC2CCCCC2)N(Cc2cccnc2)C3=O)o1 (stereo unspecified)
671 s | CCC(=O)Oc1ccc(N2C(=O)CCC2=O)cc1
834 s | O=c1ccc(N2CCC(NS(=O)(=O)c3ccc(F)c(F)c3)CC2)nn1CC1CC1
759 s | O=C(NCc1ccc(F)cc1)C1CCCN(c2ncnc3c2nc2n3CCCCC2)C1 (stereo unspecified)
970 s | Cc1cnc(SCc2ccc(Cl)cc2Cl)[nH]c1=O
1120 s | O=c1c2ccccc2ccc2ccccc12
643 s | O=C(Cn1ncc2c(N3CCN(c4ccccn4)CC3)ncnc21)Nc1ccc(Cl)cc1

RP-LC retention time | Structure (SMILES)
828 s | O=C(Nc1ccc(N2CCOCC2)cc1)c1cn(-c2ccc(F)cc2)nn1
681 s | O=C(CSCC(=O)N1CCOCC1)Nc1nc(-c2ccc3c(c2)OCO3)cs1
902 s | Cc1cc(-c2nnc(-c3ccccc3)o2)c(C)n1CC(=O)Nc1ccc2c(c1)OCCO2
879 s | O=C1CCc2cc(S(=O)(=O)NCCCc3ccccc3)cc3c2N1CCC3
641 s | CC(=O)N1CCN(S(=O)(=O)c2ccc3c(c2)OCCCO3)CC1
827 s | CCN1C(=O)C(C)(C(=O)Nc2ccc(OC)cc2)Oc2cccnc21 (stereo unspecified)
764 s | COCCNC(=O)C1CCN(c2nccnc2Sc2ccccc2)CC1
724 s | COCc1nnc(NC(=O)C2CC(=O)N(CCc3c[nH]c4ccc(Cl)cc34)C2)s1 (stereo unspecified)
924 s | Cc1ccc(Nc2ncccc2S(N)(=O)=O)cc1Cl
676 s | COc1ccccc1C(=O)Nc1c(-c2ccc(F)cc2)nc2ccccn12
1000 s | Cc1nc(-c2csc(S(=O)(=O)N3CCC(C(=O)Nc4cccc(Cl)c4)CC3)c2)no1
881 s | Cc1cccc(Cn2nc3ccc(S(=O)(=O)N4CCCC4)cn3c2=O)c1
681 s | COc1ccc(-c2ccc(=O)n(CCNC(=O)NC3CCCCC3)n2)cc1
1060 s | COc1cccc(-c2nc(C3CCN(C(=O)C4COc5ccccc5O4)CC3)no2)c1 (stereo unspecified)
696 s | Cc1ccc(OCc2nc(C)c(C(=O)N3CCC(C(N)=O)CC3)s2)cc1
1000 s | O=C(Nc1cnc(-c2ccc(F)cc2)nc1)c1ccc(F)cc1
776 s | Cc1noc(-c2ccnc(-n3cnc(C(=O)NC4CCCCC4)c3)c2)n1
799 s | Cc1ccc(NC(=O)N2CCC3(CC2)NC(=O)c2ccccc2O3)cc1F
783 s | O=C(NCCc1csc(-c2cccs2)n1)C1CCN(C(=O)COc2ccccc2)CC1
715 s | COc1ccc(CCNC(=O)Cn2ccc3ccc(-c4nnc(C)o4)cc32)cc1OC
1150 s | CCCNC(=O)N(C1CCOCC1)C1CCN(C(=O)c2nn(C)c3ccccc23)CC1
871 s | COc1cccc(-c2noc(C3CC(=O)N(c4ccc5c(c4)OCO5)C3)n2)c1OC (stereo unspecified)
714 s | Nc1nc(N)nc(-c2cc(Cl)ccc2Cl)n1

From the METLIN SMRT retention time set (Domingo-Almenara et al. 2019)
